Measurements published in patent US11360080B2, “AhR-ROR-γt complex as a biomarker and therapeutic target for autoimmune disease and IL-17A-associated disease” (NATIONAL HEALTH RESEARCH INSTITUTES, priority 2018, dated 2022).

System: GLK
Assay: GLK shRNA knockdown in T cells of Lck-GLK Tg mice, flow cytometry of IL-17A-producing T cells
Format: cell-based, mouse
Conditions: anti-CD3 3 h, day 3 post-transfection
Description: (A) Hematoxylin and eosin-stained sections of indicated organs from mice. Arrows, infiltrating immune cells. Bar, 100 μm. (B) Levels of serum autoantibodies from mice were determined by ELISA assays. The levels are presented relative to the value from one of wild-type mice. (C) The serum levels of cytokines in mice were determined by ELISA assays. (D) The serum levels of autoantibodies in Lck-GLK and Lck-GLK/IL-17A KO mice were determined by ELISA assays. The levels are presented relative to the value from one of Lck-GLK mice. (E) IL-17A expression was attenuated by GLK shRNA. Murine primary splenic T cells were transfected with GFP-human GLK shRNA and a control GFP vector. The transfected T cells were stimulated with anti-mouse CD3 antibodies for 3 h and then determined by flow cytometry at day 3 post-transfection. […] WT, wild-type littermate controls; Lck-GLK, T-cell-specific GLK transgenic mice. Lck-GLK/IL-17A KO, Lck-GLK; IL-17A-deficient mice. ANA, anti-nuclear antibody; α-dsDNA, anti-dsDNA antibody; RF, rheumatoid factor. *, P value<0.05; **, P value<0.01 (two-tailed Student's t-test).
Human Jurkat T leukaemia cells (TIB-152) were cultured in RPMI-1640 medium (Invitrogen) containing 10% fetal calf serum plus penicillin (10 units per ml) and streptomycin ([…]). […]

**Q.** “GLK shRNA: human GLK shRNA (5′-GTGCCACTTAGAATGTTTGAAA-3, SEQ ID NO: 7) subcloned into pSUPER-GFP vector” was tested. Which “IL-17A overproduction in T cells from Lck-GLK Tg mice” value did it give?
**A.** Its value is “abolished”.
